Assay results as given in patent publication US20230095836A1, “SUBSTITUTED 5,6-DIPHENYL-3(2H)-PYRIDAZINONES FOR USE AS FUNGICIDES” (FMC Corporation, priority 2020, published 2023).

What was measured:
Assay type in all cases: in vivo
Alternaria solani = experiment: Test F: test suspension sprayed on tomato seedlings, inoculated next day with Alternaria solani (tomato early blight); visual disease rating (100 = 100% disease control, 0 = no control; dash = not tested)
How it was run: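 Tomato seedlings sprayed to run-off with test suspension, inoculated next day with A. solani spores, held saturated at 27° C. for 48 h, then 20° C. for 3 days. Disease visually rated as % control relative to untreated controls.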

[1] = system: Blumeria graminis f. sp. tritici; experiment: Test C: test suspension sprayed on wheat seedlings, inoculated next day with Blumeria graminis f. sp. tritici (wheat powdery mildew); visual disease rating (100 = 100% disease control, 0 = no control; dash = not tested)
How it was run: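 Wheat seedlings were sprayed to run-off with test suspension, then dusted next day with Blumeria graminis f. sp. tritici spores. After 8 days at 20 °C in a growth chamber, disease was rated visually as percent control relative to untreated controls.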

Botrytis cinerea = experiment: Test E: test suspension sprayed on tomato seedlings, inoculated next day with Botrytis cinerea (tomato Botrytis); visual disease rating (100 = 100% disease control, 0 = no control; dash = not tested)
How it was run: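 Tomato seedlings were sprayed to run-off and inoculated next day with Botrytis cinerea spores. They were held 48 h at 20° C in saturated humidity, then 3 days at 24° C. Disease control was rated visually against controls (100 = full, 0 = none).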

[2] = system: Puccinia recondita f. sp. tritici; experiment: Test B: test solution sprayed on wheat seedlings, inoculated next day with Puccinia recondita f. sp. tritici (wheat leaf rust); disease rating (100 = 100% disease control, 0 = no control; dash = not tested)
Description: The resulting test suspensions were then used in Tests A-F. The test solution was sprayed to the point of run-off on wheat seedlings. […] A rating of 100 indicates 100% disease control and a rating of 0 indicates no disease control (relative to the controls). A dash (—) indicates the compound was not tested.

Zymoseptoria tritici = experiment: Test A: test solution sprayed on wheat seedlings, inoculated next day with Zymoseptoria tritici (wheat leaf blotch); disease rating (100 = 100% disease control, 0 = no control; dash = not tested)
How it was run: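 Wheat seedlings sprayed to run-off with test solution, inoculated next day with Z. tritici spores, held 48 h at 24° C in saturated atmosphere, then 17 days at 20° C before rating. Scores are % disease control relative to controls (100 = full control, 0 = none).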

Phakopsora pachyrhizi = experiment: Test D: test solution sprayed on soybean seedlings, inoculated next day with Phakopsora pachyrhizi (Asian soybean rust); visual disease rating (100 = 100% disease control, 0 = no control; dash = not tested)
How it was run: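 Compounds predissolved in acetone (3% of final volume), suspended at ppm concentrations in 50/50 acetone/water with 250 ppm PEG400, sprayed to run-off on soybean seedlings. Inoculated next day with spores, 24 h saturated atmosphere at 22 °C, then 8 days growth chamber at 22 °C; visual rating, 100 = full control.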

Compound | Test F disease control rating (Alternaria solani; 50 ppm) [%] | Test C disease control rating ([1]; 50 ppm) [%] | Test E disease control rating (Botrytis cinerea; 50 ppm) [%] | Test B disease control rating ([2]; 50 ppm) [%] | Test A disease control rating (Zymoseptoria tritici; 50 ppm) [%] | Test D disease control rating (Phakopsora pachyrhizi; 50 ppm) [%] | further results
CCn1nc(-c2cc(OC)cc(OC)c2Cl)c(-c2c(F)cccc2F)c(C)c1=O [Compound 22] | 79 | 98 | 100 | 100 | 100 | 98 | 
CC(=O)c1c(-c2ccc(F)cc2Cl)c(-c2ccc(F)cc2Cl)nn(C)c1=O [Compound 124] | 0 | 95 | 88 | 0 | 100 | 73 | 
COc1cc(OC)c(Br)c(-c2nn(C)c(=O)c(Br)c2-c2ccc(F)cc2Cl)c1 [Compound 61] | 99 | 94 | 100 | 100 | 100 | 99 | 
COc1c(-c2ccc(F)cc2Cl)c(-c2ccccc2)nn(C)c1=O [Compound 142, 5-(2-chloro-4-fluorophenyl)-4-methoxy-2-methyl-6-phenyl-3(2H)-pyridazinone] |  |  |  |  |  |  | pest or weed control at 50 ppm (Alternaria solani; 50 ppm): 98%; pest or weed control at 50 ppm ([1]; 50 ppm): 99%; pest or weed control at 50 ppm (Botrytis cinerea; 50 ppm): 98%; pest or weed control at 50 ppm ([2]; 50 ppm): 68%; pest or weed control at 50 ppm (Zymoseptoria tritici; 50 ppm): 95%; pest or weed control at 50 ppm (Phakopsora pachyrhizi; 50 ppm): 0%
COc1cc(F)cc(-c2nn(C)c(=O)cc2-c2c(F)cccc2F)c1Cl [Compound 206] | 76 | 93 | 100 | 100 | 97 | 65 | 
CCc1c(-c2c(F)cccc2F)c(-c2cc(OC)ccc2Cl)nn(C)c1=O [Compound 179, 6-(2-chloro-5-methoxyphenyl)-5-(2,6-difluorophenyl)-4-ethyl-2-methyl-3(2H)-pyridazinone] |  |  |  |  |  |  | pest or weed control at 50 ppm (Alternaria solani; 50 ppm): 100%; pest or weed control at 50 ppm ([1]; 50 ppm): 100%; pest or weed control at 50 ppm (Botrytis cinerea; 50 ppm): 94%; pest or weed control at 50 ppm ([2]; 50 ppm): 100%; pest or weed control at 50 ppm (Zymoseptoria tritici; 50 ppm): 100%; pest or weed control at 50 ppm (Phakopsora pachyrhizi; 50 ppm): 100%
CCn1nc(-c2cc(OC)cc(OC)c2Cl)c(-c2c(F)cccc2F)c(OC)c1=O [Compound 75] | 0 | 98 | 97 | 99 | 100 | 69 | 
COc1cc(OC)c(Cl)c(-c2nn(C)c(=O)c(C)c2-c2ccc(F)cc2Cl)c1Cl [Compound 169] | 0 | 43 | 93 | 68 | 37 | 0 | 
Cc1c(-c2ccc(F)cc2Cl)c(-c2cc(O)ccc2Cl)nn(C)c1=O [Compound 161] | 47 | 100 | 96 | 99 | 98 | 99 | 
COc1cc(C#N)c(Cl)c(-c2nn(C)c(=O)c(Cl)c2-c2ccc(F)cc2Cl)c1 [Compound 51] | 100 | 99 | 96 | 100 | 100 | 100 | 
Cn1nc(-c2cccc(F)c2Cl)c(-c2c(F)cccc2F)cc1=O [Compound 29] |  |  |  |  |  |  | Test F disease control rating (Alternaria solani; 250 ppm): 0%; Test C disease control rating ([1]; 250 ppm): 99%; Test E disease control rating (Botrytis cinerea; 250 ppm): 100%; Test B disease control rating ([2]; 250 ppm): 98%; Test A disease control rating (Zymoseptoria tritici; 250 ppm): 100%; Test D disease control rating (Phakopsora pachyrhizi; 250 ppm): 25%
COc1cc(OC)c(Cl)c(-c2nn(C)c(=O)c(C)c2-c2c(F)cccc2F)c1 [Compound 194, 6-(2-chloro-3,5-dimethoxyphenyl)-5-(2,6-difluorophenyl)-2,4-dimethyl-3(2H)-pyridazinone] |  |  |  |  |  |  | pest or weed control at 50 ppm (Alternaria solani; 50 ppm): 99%; pest or weed control at 50 ppm ([1]; 50 ppm): 100%; pest or weed control at 50 ppm (Botrytis cinerea; 50 ppm): 100%; pest or weed control at 50 ppm ([2]; 50 ppm): 100%; pest or weed control at 50 ppm (Zymoseptoria tritici; 50 ppm): 100%; pest or weed control at 50 ppm (Phakopsora pachyrhizi; 50 ppm): 100%
CCn1nc(-c2ccc(F)cc2Cl)c(-c2ccc(F)cc2Cl)c(Cl)c1=O [Compound 24] |  |  |  |  |  |  | Test F disease control rating (Alternaria solani; 250 ppm): 0%; Test C disease control rating ([1]; 250 ppm): 93%; Test E disease control rating (Botrytis cinerea; 250 ppm): 100%; Test B disease control rating ([2]; 250 ppm): 80%; Test A disease control rating (Zymoseptoria tritici; 250 ppm): 100%; Test D disease control rating (Phakopsora pachyrhizi; 250 ppm): 0%
COc1ccc(Cl)c(-c2nn(C)c(=O)c(Cl)c2-c2ccccc2)c1 [Compound 95] | 24 | 97 | 96 | 99 | 100 | 0 | 
COc1cc(OC)c(Br)c(-c2nn(C)c(=O)c(Cl)c2-c2ccc(F)cc2Cl)c1 [Compound 77, 6-(2-bromo-3,5-dimethoxyphenyl)-4-chloro-5-(2-chloro-4-fluorophenyl)-2-methyl-3(2H)-pyridazinone] |  |  |  |  |  |  | pest or weed control at 50 ppm (Alternaria solani; 50 ppm): 100%; pest or weed control at 50 ppm ([1]; 50 ppm): 99%; pest or weed control at 50 ppm (Botrytis cinerea; 50 ppm): 97%; pest or weed control at 50 ppm ([2]; 50 ppm): 100%; pest or weed control at 50 ppm (Zymoseptoria tritici; 50 ppm): 100%; pest or weed control at 50 ppm (Phakopsora pachyrhizi; 50 ppm): 100%
COc1ccc(Cl)c(-c2nn(C)c(=O)c(Cl)c2-c2ccc(F)cc2F)c1 [Compound 185] | 100 | 99 | 96 | 100 | 100 | 100 | 
COc1cc(C#N)cc(-c2nn(C)c(=O)cc2-c2c(F)cccc2F)c1 [Compound 71] | 0 | 0 | 16 | 0 | 8 | 0 | 
COc1cc(OC)cc(-c2nn(C)c(=O)cc2-c2ccc(F)cc2Cl)c1 [Compound 18] |  |  |  |  |  |  | Test F disease control rating (Alternaria solani; 250 ppm): 0%; Test C disease control rating ([1]; 250 ppm): 96%; Test E disease control rating (Botrytis cinerea; 250 ppm): 99%; Test B disease control rating ([2]; 250 ppm): 98%; Test A disease control rating (Zymoseptoria tritici; 250 ppm): 99%; Test D disease control rating (Phakopsora pachyrhizi; 250 ppm): 0%
CCOC(=O)c1c(-c2ccc(F)cc2Cl)c(-c2ccc(F)cc2Cl)nn(C)c1=O [Compound 143] |  |  |  |  |  |  | Test F disease control rating (Alternaria solani; 250 ppm): 0%; Test C disease control rating ([1]; 250 ppm): 100%; Test E disease control rating (Botrytis cinerea; 250 ppm): 0%; Test B disease control rating ([2]; 250 ppm): 80%; Test A disease control rating (Zymoseptoria tritici; 250 ppm): 6%; Test D disease control rating (Phakopsora pachyrhizi; 250 ppm): 0%
Cn1nc(-c2cccc(Cl)c2Cl)c(-c2ccc(F)cc2Cl)c(Cl)c1=O [Compound 104] | 99 | 100 | 97 | 100 | 100 | 100 | 
COCc1c(-c2ccc(F)cc2Cl)c(-c2ccc(F)cc2Cl)nn(C)c1=O [Compound 122] | 0 | 98 | 53 | 0 | 100 | 0 | 
